Measurements: US7683061B2, “Triazine dimers for the treatment of autoimmune diseases” (ProMetic BioSciences Inc., priority 2003, dated 2010)
Read-outs that look alike come from different tables or passages of the source.

Assays:
[1] = tested on: female Lewis rats, adjuvant-induced arthritis; test: Freund's adjuvant-induced arthritis (AIA); assay type: in vivo
Source text: AIA was induced in female Lewis rats by the injection of lyophilized Mycobacterium butyricum suspended in mineral oil into the footpad. The development of aridity was monitored over a 3 weeks period post-adjuvant injection, inflammation peaks at day 3 following the adjuvant administration. Immune activation appears around day 14. Compounds were orally or intravenously administered at different doses at day −3, −2 and −1 pre-adjuvant injection and at different regimen as specified in the exponent starting from day 10 through 21 post-adjuvant injection or animals were treated with oral admiration of compound 19a from day −3 to day 21. Body weight was recorded. The arthritis index, which is a measure of inflammation (oedema), redness and stiffness of the articulations, was used to monitor the development of the disease. The degree of arthritis was determined by measuring two perpendicular diameters of the ankles in the mediolateral and dorsoventral planes using a caliper. Joint circumference in millimeters is then calculated using a geometric formula. Both the incidence and severity of the arthritis was evaluated. Incidence is defined as the number of rats with clinical evidence of joint inflammation during the study period.

[2] = tested on: female Lewis rats, collagen-induced arthritis; test: Collagen-induced arthritis (CIA); assay type: in vivo; conditions: intravenous; by day 14 and beyond
Method: Collagen-induced arthritis (CIA) was induced in female Lewis rats by intradermal administration of heterologous (bovine) type II collagen (250 μg) solubilized in 0.1 M acetic acid and emulsified in Complete Freund's Adjuvant (CFA). Rats were treated with the vehicle or methotrexate or compound 1 by intravenous injections at day 8, 9, 12, 14 and 16. Synovitis typically develops 12-15 days postimmunization in 80-90% of the animals. Once arthritis appears, each paw was examined two to three times a week. Both the incidence and severity of the arthritis was evaluated. Incidence is defined as the number of rats with clinical evidence of joint inflammation during the study period while severity was quantified by scoring daily each paw integer on a scale of 0 to 4 (0=normal, 4=maximum; Table 7) based on increasing levels of swelling, periarticular erythema and stiffness. The sum of the scores for all four paws was calculated as the arthritic index with a maximum possible score of 16 per rat. Since CIA primarily affects hind limbs, scores of 6-8 represent severe arthritis.

[3] = target: T1, Fc portion of human IgG (binding of protein A to human IgG); test: Competitive protein A binding ELISA; conditions: Table 1
T1 construct: fused on or other part: Horseradish peroxidase chemically conjugated to the IgG (HRP-IgG)
Method: As described above, this assay evaluates the ability of the exemplified compounds to mimic protein A. Such compounds can bind to the Fc portion of human IgG as ascertained by the inhibition of binding of protein A to human IgG. The competitive protein A binding ELISA assay was performed on a 96-well plate Maxisorp surface to enhance the binding of protein A to the bottom of the plate. The wells were coated with 100 μL of protein A (0.8 μg) and incubated overnight at 4° C. After incubation, unbound protein A was removed by three washes with phosphate buffer saline (PBS). The plate was then incubated with 100 μL/well of a 2% solution of bovine serum albumin (BSA) for 1 h at 37° C. to block non specific protein binding. After incubation, the plate was washed to times with PBS. 50 μL of compound or protein A, diluted in PBS or PBS-20% DMSO at appropriate concentration, were added to the wells followed by addition of 50 μL of peroxidase-conjugated human IgG (HRP-IgG). After 1 h incubation at 37° C., the plate was washed free times with PBS to remove unbound HRP-IgG. Bound HRP-IgG was detected by incubation with 100 μL of 2,2′-Azino-di[3-ethylbenzothiazoline sulfonate]diammonium salt crystals (ABTS) solution for 20 min in the dark at room temperature. The plate was then read at 405 nm on a EL 800, universal Microplate reader (Bio-Tek). Data was analyzed in Microsoft Excel and the concentration of compound which inhibits 50% binding of protein A (IC50) was calculated using Prism software.
Table 1 represents the IC50 of compounds tested in the competitive protein A binding ELISA assay, which consists of a side-by-side analysis in PBS and PBS-20% DMSO. DMSO was used to increase the solubility of some of the compounds.

[4] = tested on: TNFα production, J774A-1 cells; test: LPS-induced TNFα production in J774A-1 cells (ELISA); assay type: cell-based; conditions: Mus musculus, J774.A1, 24 h, read-out: IC50 (μM), inhibition of TNFα released by LPS induction
Method: Effect of compounds on TNFα production was measured by ELISA using J774-1 cells stimulated by LPS. J774-1 cells were cultured in the presence or absence of LPS and compound. Cells were cultured at 37° C. for 24 h and thereafter the supernatants were collected for the determination of the concentration of TNFα by ELISA as recommended by the manufacturer (BD Biosciences). Data was analyzed in Microsoft Excel and the concentration of compound which inhibits 50% of TNFα production (IC50) was calculated using Prism software.

MRL/lpr mice = test: SLE-like syndrome in MRL/lpr mice; assay type: in vivo; conditions: control group 10%
Source text: FIG. 5 is an example of the effect of compounds on survival of MRL/lpr mice. These mice also spontaneously develop SLE-like syndrome. MRL/lpr have a homozygous fas mutation, which accelerates autoimmunity. […] Furthermore, compounds 1 and 20 increase the survival (40%) compared to the control group (10%).

RAW 264.7 cells = test: Phagocytosis of FITC-immune complexes by RAW 264.7 cells; assay type: cell-based; conditions: Mus musculus, RAW264.7; 20 μM; read-out: inhibition of phagocytosis of IC
Method: This assay was performed to determine the ability of protein A mimic compounds to stimulate or inhibit uptake of FITC-Immune Complex (IC). FITC-IC was prepared by mixing human serum albumin (HSA)-fluorescein isothiocyanate (FITC) with mouse IgG anti-HSA at a 1:4 ratio (four molecules of antibody for one molecule of antigen) on a rotary shaker for 1 h at room temperature. Soluble IC was then incubated with or without compounds or protein A for 10 min. This mixture was added to RAW 264.7 cells and incubated for 2 h at 37° C. for IC phagocytosis. After incubation, cells were washed twice in cold PBS (5 min, 1200 rpm) and fixed with 500 μL PBS containing 2% formaldehyde. FITC signal taken up by RAW 264.7, which is indicative of IC phagocytosis, was determined by flow cytometry analysis in a Becton Coulter counter with an argon laser and signal was measured through a 530/30 nm filter.

[5] = PBS-20% DMSO, read-out: IC50 (μM): Assay in PBS-20% DMSO

Row | SMILES | inhibition of chronic inflammation (days 12 to 21) ([1]; days 15 to 21) | reduction in the severity of arthritis (inflammatory index) ([1]; intravenous, by day 19 and over, FIG. 10) | reduction in the severity of arthritis (arthritic index) [2] | IC50 [3, 5] | IC50 [4] | survival of MRL/lpr mice (MRL/lpr mice) | inhibition at 20 µM (RAW 264.7 cells) | IC50 ([3]; PBS, read-out: IC50 (μM): Assay in PBS)
1 | CN(Cc1cnc2nc(N)nc(N)c2n1)c1ccc(C(=O)N[C@@H](CCC(=O)O)C(=O)O)cc1 [methotrexate, reference compound] | strong and significant inhibition of inflammation | 50% | 50% | – | – | – | – | –
2 | OCCNc1nc(NCCc2ccc(Nc3nc(NCCc4ccc(O)cc4)nc(Nc4ccccc4)n3)cc2)nc(Nc2ccccc2)n1 [Compound 20] | – | – | – | 26 µM | 23.3 µM | 40% | – | –
3 | N=C(N)NCCNc1nc(NCCc2ccc(Oc3nc(NCCc4ccc(O)cc4)nc(Nc4ccccc4)n3)cc2)nc(Nc2ccccc2)n1 [Compound 14] | – | – | – | 63 µM | 11.8 µM | – | ~50% | 33 µM
